Test results published in patent publication US6136813A, “Pharmaceutical treatment” (Beecham plc, priority 1989, dated 2000).
Read-outs that look alike come from different tables or passages of the source. Each block holds one molecule with its values, some of them ahead of it.

Test: Blood levels of penciclovir in Pekin ducks after oral dosing with penciclovir or famciclovir
Format: in vivo
Settings: duck; for AUC at 6 h: 0-6 hr; for concentration at 0.25 h: 15 min; for concentration at 32 min / concentration at 0.5 h: 30 min; for concentration at 32 min: sample collected at 32 min; for concentration at 1 h / concentration at 65 min: 60 min; for concentration at 2 h: 120 min; for concentration at 4 h: 240 min; for concentration at 6 h: 360 min; for concentration at 65 min: sample collected at 65 min
[1] = 5 mg/kg, oral famciclovir 5 mg/kg, Duck No. 117
[2] = 5 mg/kg, oral famciclovir 5 mg/kg, Duck No. 154
[3] = 25 mg/kg, oral famciclovir 25 mg/kg, Duck No. 111
[4] = 25 mg/kg, oral famciclovir 25 mg/kg, Duck No. 153
[5] = 20 mg/kg, oral penciclovir 20 mg/kg, Duck No. 139
[6] = 20 mg/kg, oral penciclovir 20 mg/kg, Duck No. 169
[7] = 100 mg/kg, oral penciclovir 100 mg/kg, Duck No. 142
[8] = 100 mg/kg, oral penciclovir 100 mg/kg, Duck No. 163

Compound: CC(=O)OCC(CCn1cnc2cnc(N)nc21)COC(C)=O [famciclovir, 9-(4-acetoxy-3-acetoxymethylbut-1-yl)-2-aminopurine]
- AUC at 6 h (5 mg/kg, oral famciclovir 5 mg/kg, Duck No. 117, read-out: AUC (area under the 0-6 hr. concentration/time curve) of penciclovir in blood): 15 µM·h
- AUC at 6 h (5 mg/kg, oral famciclovir 5 mg/kg, Duck No. 154, read-out: AUC (area under the 0-6 hr. concentration/time curve) of penciclovir in blood): 12 µM·h
- concentration at 0.25 h [1]: 8.7 µM
- concentration at 0.25 h [2]: 5.1 µM
- concentration at 32 min [1]: 8.4 µM
- concentration at 32 min [2]: 3.9 µM
- concentration at 1 h [1]: 7.5 µM
- concentration at 1 h [2]: 3.5 µM
- concentration at 2 h [1]: 2 µM
- concentration at 2 h [2]: 2 µM
- concentration at 4 h [1]: ~0.5 µM
- concentration at 4 h [2]: 1.4 µM
- concentration at 6 h [2]: 1 µM
- AUC at 6 h (25 mg/kg, oral famciclovir 25 mg/kg, Duck No. 111, read-out: AUC (area under the 0-6 hr. concentration/time curve) of penciclovir in blood): 126 µM·h
- AUC at 6 h (25 mg/kg, oral famciclovir 25 mg/kg, Duck No. 153, read-out: AUC (area under the 0-6 hr. concentration/time curve) of penciclovir in blood): 90 µM·h
- concentration at 0.25 h [3]: 22 µM
- concentration at 0.25 h [4]: 18 µM
- concentration at 0.5 h [3]: 31 µM
- concentration at 32 min [4]: 20 µM
- concentration at 1 h [3]: 34 µM
- concentration at 1 h [4]: 25 µM
- concentration at 2 h [3]: 33 µM
- concentration at 2 h [4]: 20 µM
- concentration at 4 h [3]: 14 µM
- concentration at 4 h [4]: 4.4 µM
- concentration at 6 h [3]: 6.1 µM
- concentration at 6 h [4]: ~0.5 µM

- AUC at 6 h (20 mg/kg, oral penciclovir 20 mg/kg, Duck No. 139, read-out: AUC (area under the 0-6 hr. concentration/time curve) of penciclovir in blood): 55 µM·h
- AUC at 6 h (20 mg/kg, oral penciclovir 20 mg/kg, Duck No. 169, read-out: AUC (area under the 0-6 hr. concentration/time curve) of penciclovir in blood): 57 µM·h
- concentration at 0.25 h [5]: 24 µM
- concentration at 0.25 h [6]: 41 µM
- concentration at 0.5 h [5]: 28 µM
- concentration at 0.5 h [6]: 30 µM
- concentration at 65 min [5]: 18 µM
- concentration at 65 min [6]: 19 µM
- concentration at 2 h [5]: 12 µM
- concentration at 2 h [6]: 10 µM
- concentration at 4 h [5]: 2.8 µM
- concentration at 4 h [6]: 2.6 µM
- concentration at 6 h [5]: ~0.5 µM
- AUC at 6 h (100 mg/kg, oral penciclovir 100 mg/kg, Duck No. 142, read-out: AUC (area under the 0-6 hr. concentration/time curve) of penciclovir in blood): 92 µM·h
- AUC at 6 h (100 mg/kg, oral penciclovir 100 mg/kg, Duck No. 163, read-out: AUC (area under the 0-6 hr. concentration/time curve) of penciclovir in blood): 95 µM·h
- concentration at 0.25 h [7]: 43 µM
- concentration at 0.25 h [8]: 42 µM
- concentration at 0.5 h [7]: 44 µM
- concentration at 0.5 h [8]: 38 µM
- concentration at 1 h [7]: 40 µM
- concentration at 65 min [8]: 44 µM
- concentration at 2 h [7]: 18 µM
- concentration at 2 h [8]: 21 µM
- concentration at 4 h [7]: 3.6 µM
- concentration at 4 h [8]: 2.7 µM
- concentration at 6 h [7]: 1.1 µM
- concentration at 6 h [8]: ~0.5 µM
Compound: Nc1nc2c(ncn2CCC(CO)CO)c(=O)[nH]1 [penciclovir]
